T/C data for 15 compounds are collected here from PubChem BioAssay AID276 (DTP/NCI, 2004).

“And” between values parts separate entries of the source, which are not always exact repeats. Equal values may be shown once. Inconclusive results and toxic doses are left out.

The assay concerns B6C3F1 mice, Lewis lung carcinoma iv, survival T/C. As to the kind of experiment: NCI In Vivo Anticancer Drug Screen. Data for tumor model Lewis Lung Carcinoma (intravenous) in B6C3F1 mice. The settings on record: endpoint: median survival time, schedule: Q01DX009 (ip), higher = longer survival. The essentials:
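T/C ratio derived from survival of compound-treated versus vehicle-treated mice bearing transplantable tumors.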

Where [1] appears, read: dose: 12.5 mg/kg/injection, vehicle: saline with Tween-80.
Where [2] appears, read: dose: 25.0 mg/kg/injection, vehicle: saline with Tween-80.
Setting [3] is: dose: 50.0 mg/kg/injection, vehicle: saline with Tween-80.
Where [4] appears, read: dose: 100.0 mg/kg/injection, vehicle: saline with Tween-80.
Setting [5] is: dose: 2.0 mg/kg/injection, vehicle: saline.
[6] abbreviates: dose: 8.0 mg/kg/injection, vehicle: saline.
Where [7] appears, read: dose: 16.0 mg/kg/injection, vehicle: saline.
[8] abbreviates: dose: 12.5 mg/kg/injection, vehicle: saline.
Where [9] appears, read: dose: 25.0 mg/kg/injection, vehicle: saline.
[10] abbreviates: dose: 50.0 mg/kg/injection, vehicle: saline.
Where [11] appears, read: dose: 100.0 mg/kg/injection, vehicle: saline.
[12] abbreviates: dose: 25.0 mg/kg/injection, vehicle: Klucel (hydroxypropylcellulose) (HPC).
The mark [13] stands for this setting: dose: 50.0 mg/kg/injection, vehicle: Klucel (hydroxypropylcellulose) (HPC).
Setting [14] is: dose: 100.0 mg/kg/injection, vehicle: Klucel (hydroxypropylcellulose) (HPC).
[15] abbreviates: dose: 200.0 mg/kg/injection, vehicle: Klucel (hydroxypropylcellulose) (HPC).
Where [16] appears, read: dose: 1.0 mg/kg/injection, vehicle: saline.
Where [17] appears, read: dose: 6.25 mg/kg/injection, vehicle: saline with Tween-80.

Turning to `O=C1c2ccccc2C(=O)c2c3c(cc(NCCNCCO)c21)N(CCO)CCN3`, the T/C was 101 % of control (dose: 12.5 mg/kg/injection, vehicle: DMSO); 95 % of control (dose: 25.0 mg/kg/injection, vehicle: DMSO); 104 % of control (dose: 50.0 mg/kg/injection, vehicle: DMSO); 101 % of control (dose: 100.0 mg/kg/injection, vehicle: DMSO); 96 % of control (dose: 200.0 mg/kg/injection, vehicle: DMSO).

As to `NCCCNCCSP(=O)(O)O`, the T/C under setting [1] is 98 % of control; the T/C under setting [2] was 98 % of control; the T/C under setting [3] was 95 % of control; the T/C under setting [4] is 106 % of control; the T/C (dose: 200.0 mg/kg/injection, vehicle: saline with Tween-80) is 105 % of control.

With `CCCCNCCCNCCCNC(=O)c1csc(-c2csc(CCNC(=O)C(NC(=O)C(C)C(O)C(C)NC(=O)C(NC(=O)c3nc(C(CC(N)=O)NCC(N)C(N)=O)nc(N)c3C)C(OC3OC(CO)C(O)C(O)C3OC3OC(CO)C(O)C(OC(N)=O)C3O)c3cnc[nH]3)C(C)O)n2)n1` (centres undefined), the T/C under setting [5] is 112 % of control, the T/C under setting [6] is 155 % of control and the T/C under setting [7] was 184 % of control.

Turning to `Cn1cnc([N+](=O)[O-])c1SCC(=O)O`, the T/C under setting [8] was 100 % of control; the T/C under setting [9] was 107 % of control; the T/C under setting [10] was 103 % of control; the T/C under setting [11] is 93 % of control; the T/C (dose: 200.0 mg/kg/injection, vehicle: saline) was 104 % of control; the T/C (dose: 400.0 mg/kg/injection, vehicle: saline) is 96 % of control.

As to `N/C(=N\OC(=O)Nc1ccc(CSc2ccc(Cl)cc2)o1)c1ccccn1`, the T/C by setting is: under setting [12], 102 % of control; under setting [13], 103 % of control; under setting [14], 99 % of control; under setting [15], 99 % of control.

Turning to `CC(=O)N(C)C`, the T/C is, setting by setting: (dose: 122.5 mg/kg/injection, vehicle: saline) 88 % of control; (dose: 225.0 mg/kg/injection, vehicle: saline) 95 % of control; (dose: 450.0 mg/kg/injection, vehicle: saline) 110 % of control; (dose: 900.0 mg/kg/injection, vehicle: saline) 100 % of control; (dose: 1800.0 mg/kg/injection, vehicle: saline) 93 % of control; (dose: 3600.0 mg/kg/injection, vehicle: saline) 104 % of control.

Regarding `CC1=C(C)C(=O)O[C@@H]([C@](C)(O)[C@]2(O)CC[C@@]3(O)[C@@H]4C[C@H]5O[C@]56[C@@H](O)C=CC(=O)[C@]6(C)[C@H]4CC[C@]23C)C1`, the T/C reads like this: under setting [16], 97 % of control; under setting [5], 100 % of control and 101 % of control; (dose: 4.0 mg/kg/injection, vehicle: saline) 101 % of control and 104 % of control; under setting [6], 94 % of control and 101 % of control; under setting [7], 94 % of control; (dose: 32.0 mg/kg/injection, vehicle: saline) 92 % of control.

For `OCC1OC(n2cnc3c(NO)ncnc32)C(O)C1O` (centres undefined), the T/C by setting is: (dose: 12.5 mg/kg/injection, vehicle: Klucel (hydroxypropylcellulose) (HPC)) 102 % of control; under setting [12], 97 % of control; under setting [13], 109 % of control; under setting [14], 105 % of control; under setting [15], 110 % of control; (dose: 400.0 mg/kg/injection, vehicle: Klucel (hydroxypropylcellulose) (HPC)) 109 % of control.

Take `CCC1CCCCN1C(=S)N/N=C(\C)c1ccccn1` (centres undefined): the T/C under setting [17] is 101 % of control, the T/C under setting [1] was 115 % of control and the T/C under setting [2] was 104 % of control.

For `Nc1nc(=S)c2[nH]cnc2[nH]1`, the T/C was 104 % of control (dose: 0.5 mg/kg/injection, vehicle: saline) and 114 % of control under setting [5].

On to `Cc1c(N)nc(C(CC(N)=O)NCC(N)C(N)=O)nc1C(=O)NC(C(=O)NC(C)C(O)CC(=O)NC(C(=O)NC(OC1OC(C)C(N)C(O)C1O)C(O)c1nc(-c2nc(C(=O)NCCCC(N)CC(=O)NCCCNCCCCN)cs2)cs1)C(C)O)C(OC1OC(CO)C(O)C(O)C1OC1OC(CO)C(O)C(OC(N)=O)C1O)c1cnc[nH]1` (centres undefined), for which the T/C was 124 % of control under setting [16] and 123 % of control under setting [5].

For `C1CN1c1nc(N2CC2)nc(N2CC2)n1`, the T/C reads like this: (dose: 0.06 mg/kg/injection, vehicle: suspension in saline) 96 % of control; (dose: 0.12 mg/kg/injection, vehicle: suspension in saline) 92 % of control; (dose: 0.25 mg/kg/injection, vehicle: suspension in saline) 101 % of control; (dose: 0.5 mg/kg/injection, vehicle: suspension in saline) 106 % of control; (dose: 1.0 mg/kg/injection, vehicle: suspension in saline) 121 % of control.

Consider `O=[N+]([O-])c1ccc(N2CCOCC2)c2c1no[n+]2[O-]`, for which the T/C under setting [17] is 118 % of control; the T/C under setting [1] is 102 % of control; the T/C under setting [2] was 111 % of control; the T/C under setting [3] is 111 % of control; the T/C under setting [4] is 98 % of control.

Consider `CCCCCCCC(=O)N/N=C(\CO)[C@]1(O)Cc2c(O)c3c(c(O)c2[C@@H](OC2CC(N)C(O)C(C)O2)C1)C(=O)c1c(OC)cccc1C3=O` (some centres undefined), for which the T/C (dose: 1.5 mg/kg/injection, vehicle: saline) was 100 % of control; the T/C (dose: 1.5 mg/kg/injection, vehicle: water) was 108 % of control; the T/C (dose: 3.0 mg/kg/injection, vehicle: saline) was 102 % of control; the T/C (dose: 3.0 mg/kg/injection, vehicle: water) was 104 % of control; the T/C (dose: 6.0 mg/kg/injection, vehicle: saline) is 105 % of control; the T/C (dose: 6.0 mg/kg/injection, vehicle: water) is 99 % of control. For the same compound, the T/C is, setting by setting: (dose: 12.0 mg/kg/injection, vehicle: saline) 112 % of control; (dose: 12.0 mg/kg/injection, vehicle: water) 92 % of control; (dose: 24.0 mg/kg/injection, vehicle: saline) 87 % of control.

`CC(C)C(N)C(=O)Nc1nncs1` (centres undefined): the T/C under setting [8] is 108 % of control; the T/C under setting [9] was 104 % of control; the T/C under setting [10] is 114 % of control and 121 % of control; the T/C (dose: 50.62 mg/kg/injection, vehicle: saline) was 103 % of control; the T/C (dose: 50.62 mg/kg/injection, vehicle: suspension in saline) is 110 % of control; the T/C (dose: 67.5 mg/kg/injection, vehicle: saline) was 103 % of control. The T/C was 124 % of control (dose: 67.5 mg/kg/injection, vehicle: suspension in saline); 100 % of control (dose: 90.0 mg/kg/injection, vehicle: saline); 165 % of control and 245 % of control under setting [11]; 112 % of control (dose: 120.0 mg/kg/injection, vehicle: saline); 157 % of control (dose: 120.0 mg/kg/injection, vehicle: suspension in saline); 117 % of control (dose: 160.0 mg/kg/injection, vehicle: saline).
